These are literature values, as cited in US20070160663A1, “Single unit pharmaceutical composition comprising a mixture of fenofibrate and a modified release form of a homocysteine reducing agent” (GALEPHAR PHARMACEUTICAL RESEARCH, INC., priority 2003, published 2007).

In the case of `CC(C)OC(=O)C(C)(C)Oc1ccc(C(=O)c2ccc(Cl)cc2)cc1` [Fenofibrate, p-(4-chlorobenzoyl)-phenoxy isobutyrate isopropyl ester], the Tmax (commonly the time at which the peak concentration occurs) (after oral administration) was 3 to 6 h.

In the case of `Nc1nc2ncc(CNc3ccc(C(=O)N[C@@H](CCC(=O)O)C(=O)O)cc3)nc2c(=O)[nH]1` [folic acid], the elimination half-life (in vivo) is 3 h.

As for `CC(C)(Oc1ccc(C(=O)c2ccc(Cl)cc2)cc1)C(=O)O` [Fenofibric acid], where the note is “after oral administration of a conventional marketed form such as Lipanthyl tablet or Fenogal capsule”, the “Tmax (time to peak plasma level)” value is 3 to 6 h.
